Measured values reported in paper PMC11144275 (The Lancet. Infectious diseases, 2019).
pEC50: −log10 of the molar value. Where a name gives a salt, the structure may show the parent alone.

Key:
EBOV-Makona = experiment: microbe, parasite or virus in culture; format: cell-based, Ebola virus
EBOV-Ituri = experiment: microbe, parasite or virus in culture; format: cell-based, Ebola virus

| SMILES | EBOV-Makona Selectivity index (EBOV-Makona) | EBOV-Ituri Selectivity index (EBOV-Ituri) | CC50 (Huh-7 cells) | pEC50 (EBOV-Makona; Zaire ebolavirus, Huh-7, read-out: EC50 EBOV-Makona) | pEC50 (EBOV-Ituri; Zaire ebolavirus, Huh-7, read-out: EC50 EBOV-Ituri) |
| --- | --- | --- | --- | --- | --- |
| CN(C)CCOc1ccc(/C(=C(/CCCl)c2ccccc2)c2ccccc2)cc1 [Toremifene citrate] | >250 | >625 | – | – | – |
| CCN(CC)CCOc1ccc(C(=C(Cl)c2ccccc2)c2ccccc2)cc1 [Clomifene citrate] | – | – | 8·43 (1·08) μM | – | – |
| NCC(=O)Nc1ccc(-n2nc(C(F)(F)F)cc2-c2ccc3c(ccc4ccccc43)c2)cc1 [AR-12] | – | – | 3·67 (0·14) μM | – | – |
| Nc1ccn([C@@H]2O[C@H](CO)[C@@H](O)[C@H]2F)c(=O)n1 [2′-deoxy-2′-fluorocytidine] | >16 | >14 | – | – | – |
| CC/C(=C(\c1ccccc1)c1ccc(OCCN(C)C)cc1)c1ccccc1 [Tamoxifen] | – | – | 16·29 (12·05) μM | – | – |
| COc1c(C)c2c(c(O)c1C/C=C(\C)CCC(=O)OCCN1CCOCC1)C(=O)OC2 [Mycophenolate mofetil] | 97 | 89 | 14·2 (4·3) μM | – | – |
| CCC(CC)COC(=O)[C@H](C)N[P@](=O)(OC[C@H]1O[C@@](C#N)(c2ccc3c(N)ncnn23)[C@H](O)[C@@H]1O)Oc1ccccc1 [Remdesivir] | – | – | 3·63 (2·88) μM | 7.92 | 7.89 |
| NC(=O)c1ncn([C@@H]2O[C@H](CO)[C@@H](O)[C@H]2O)n1 [Ribavirin] | >4 | >3 | – | – | – |
